Data reported in ChEMBL document CHEMBL1134932, “Bridged bicyclic vasopressin receptor antagonists with V(2)-selective or dual V(1a)/V(2) activity” (Bioorg Med Chem Lett, 2002).

Key:
[1] = molecular target: T1, Vasopressin V2 receptor (Homo sapiens, UniProt P30518); experiment: Inhibition of [3H]Arg-vasopressin binding to recombinant human vasopressin V2 receptor
[2] = molecular target: T2, Vasopressin V1a receptor (Homo sapiens, UniProt P37288); experiment: Inhibition of AVP mediated activation of human vasopressin V1a receptor expressed in HEK293 cells; type: cell-based
Target sequence in this assay (P37288 whole entry): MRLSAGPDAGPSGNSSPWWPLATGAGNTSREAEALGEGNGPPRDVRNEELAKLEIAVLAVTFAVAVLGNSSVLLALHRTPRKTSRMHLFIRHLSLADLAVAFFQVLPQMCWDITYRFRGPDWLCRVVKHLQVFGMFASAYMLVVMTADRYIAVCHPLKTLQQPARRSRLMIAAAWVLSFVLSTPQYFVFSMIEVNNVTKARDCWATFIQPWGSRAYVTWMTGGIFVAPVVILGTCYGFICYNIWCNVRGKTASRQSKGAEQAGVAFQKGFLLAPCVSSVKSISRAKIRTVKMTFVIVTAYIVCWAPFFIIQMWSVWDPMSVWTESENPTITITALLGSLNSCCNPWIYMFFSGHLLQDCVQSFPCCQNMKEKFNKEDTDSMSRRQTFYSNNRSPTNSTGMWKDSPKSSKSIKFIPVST

[3] = molecular target: T2, Vasopressin V1a receptor; experiment: Inhibition of [3H]Arg-vasopressin binding to recombinant human vasopressin V1a receptor
Target sequence in this assay (P37288 whole entry): as above

[4] = molecular target: T1, Vasopressin V2 receptor; experiment: Inhibition of AVP mediated activation of human vasopressin V2 receptor expressed in HEK293 cells; type: cell-based
[5] = tested on: Rattus norvegicus; experiment: The clearance rate in mature male rat at a intravenous dose of 3 mg/kg; type: ADME, organism-based; parameters: dose 3 mg/kg, route intravenous; conditions: in vivo
[6] = Oral bioavailability in rat (mature male) (dose 30 mg/kg); type: ADME, organism-based; conditions: in vivo
[7] = The maximum plasma levels for the compounds were determined by LC-MS.; type: ADME, organism-based; conditions: rat
[8] = tested on: Rattus norvegicus; experiment: Effective dose for reversal of AVP-Induced Hypertension in pentobarbital-anesthetized male Long-Evans rats.; type: functional
[9] = tested on: Rattus norvegicus; experiment: The diuretic effect in 10 male Sprague-Dawley rats after 4 hrs at a dose of 10 mg/kg by oral route; type: functional, Urine
[10] = tested on: Rattus norvegicus; experiment: The diuretic effect in 10 male Sprague-Dawley rats after 4 hrs at a dose of 1 mg/kg by oral route; type: functional, Urine
[11] = tested on: Rattus norvegicus; experiment: The diuretic effect in 9 male Sprague-Dawley rats after 4 hrs at a dose of 0.3 mg/kg by oral route; type: functional, Urine
[12] = tested on: Rattus norvegicus; experiment: The Urine osmolality in 10 male Sprague-Dawley rats after 4 hrs at a dose of 10 mg/kg by oral route; type: functional
[13] = tested on: Rattus norvegicus; experiment: The Urine osmolality in 10 male Sprague-Dawley rats after 4 hrs at a dose of 1 mg/kg by oral route; type: functional
[14] = tested on: Rattus norvegicus; experiment: The Urine osmolality in 10 male Sprague-Dawley rats after 4 hrs at a dose of 3 mg/kg by oral route; type: functional
[15] = tested on: Rattus norvegicus; experiment: The Urine osmolality in 9 male Sprague-Dawley rats after 4 hrs at a dose of 0.3 mg/kg by oral route; type: functional
[16] = Half life tested in mature male rat at a dose of 30 mg/kg; type: ADME, organism-based; parameters: dose 30 mg/kg; conditions: in vivo
[17] = tested on: Rattus norvegicus; experiment: The diuretic effect in 10 male Sprague-Dawley rats after 4 hrs at a dose of 3 mg/kg by oral route; type: functional, Urine
[18] = molecular target: T2, Vasopressin V1a receptor; experiment: Inhibition of [3H]Arg-vasopressin binding to recombinant human vasopressin V1a receptor at 0.1 uM
Target sequence in this assay (P37288 whole entry, looked up): as the sequence (P37288 whole entry) above

[19] = molecular target: Cytochrome P450 2C9 (Homo sapiens, UniProt P11712); experiment: Inhibition of cytochrome P450 2C9; type: ADME
[20] = tested on: Rattus norvegicus; experiment: Excretion of Creatinine at a dose of 10 mg/kg in male Sprague-Dawley rats; type: functional
[21] = tested on: Rattus norvegicus; experiment: Excretion of Creatinine at a dose of 1 mg/kg in male Sprague-Dawley rats; type: functional
[22] = tested on: Rattus norvegicus; experiment: Excretion of Creatinine at a dose of 3 mg/kg in male Sprague-Dawley rats; type: functional
[23] = tested on: Rattus norvegicus; experiment: Excretion of potassium at a dose of 1 mg/kg in male Sprague-Dawley rats; type: functional
[24] = tested on: Rattus norvegicus; experiment: Excretion of potassium at a dose of 3 mg/kg in male Sprague-Dawley rats; type: functional
[25] = tested on: Rattus norvegicus; experiment: Excretion of sodium at a dose of 10 mg/kg in male Sprague-Dawley rats; type: functional
[26] = tested on: Rattus norvegicus; experiment: Excretion of sodium at a dose of 1 mg/kg in male Sprague-Dawley rats; type: functional
[27] = tested on: Rattus norvegicus; experiment: Excretion of sodium at a dose of 3 mg/kg in male Sprague-Dawley rats; type: functional
[28] = tested on: Rattus norvegicus; experiment: Excretion of potassium at a dose of 10 mg/kg in male Sprague-Dawley rats; type: functional

T1 sequence (P30518 whole entry): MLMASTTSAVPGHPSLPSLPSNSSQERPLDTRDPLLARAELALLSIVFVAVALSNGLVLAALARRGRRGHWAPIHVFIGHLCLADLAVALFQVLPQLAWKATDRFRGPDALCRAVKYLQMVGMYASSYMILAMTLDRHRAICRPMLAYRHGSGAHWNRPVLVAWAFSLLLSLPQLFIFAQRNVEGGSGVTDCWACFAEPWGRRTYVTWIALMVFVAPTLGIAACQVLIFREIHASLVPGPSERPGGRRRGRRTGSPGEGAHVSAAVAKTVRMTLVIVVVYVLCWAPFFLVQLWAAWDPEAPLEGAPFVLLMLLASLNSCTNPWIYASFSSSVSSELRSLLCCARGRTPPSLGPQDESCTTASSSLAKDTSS
Sequence of Cytochrome P450 2C9 (P11712 whole entry): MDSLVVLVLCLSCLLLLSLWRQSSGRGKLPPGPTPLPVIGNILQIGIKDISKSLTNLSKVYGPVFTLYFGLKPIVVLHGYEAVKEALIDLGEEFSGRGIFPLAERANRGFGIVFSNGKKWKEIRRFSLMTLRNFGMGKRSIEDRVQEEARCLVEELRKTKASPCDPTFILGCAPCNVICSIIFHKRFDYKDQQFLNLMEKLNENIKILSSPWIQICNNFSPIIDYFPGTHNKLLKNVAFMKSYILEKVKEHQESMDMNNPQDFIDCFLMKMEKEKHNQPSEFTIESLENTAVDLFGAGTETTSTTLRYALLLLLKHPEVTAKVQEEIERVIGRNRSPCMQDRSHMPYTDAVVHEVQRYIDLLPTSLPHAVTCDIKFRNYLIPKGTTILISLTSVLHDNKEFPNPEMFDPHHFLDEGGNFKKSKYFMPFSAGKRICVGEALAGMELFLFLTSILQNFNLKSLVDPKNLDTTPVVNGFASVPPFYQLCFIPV

Structure (SMILES): O=C(Nc1ccc(C(=O)N2C[C@@H]3C4CCC(C4)N3Cc3cc(Cl)ccc32)cc1)c1ccccc1Cl (some centres undefined)
- IC50 [1]: 10 nM
- Ki [2]: 130 nM
- IC50 [3]: 5 nM
- Ki [4]: 32 nM

Structure (SMILES): O=C(Nc1ccc(C(=O)N2C[C@@H]3C4CCC(C4)N3Cc3ccccc32)c(Cl)c1)c1ccccc1-c1ccccc1 (some centres undefined)
- Clearance [5]: 1.2 mg/kg/µM/h
- bioavailability [6]: 14%
- Cmax [7]: 650 nM
- ED50 [8]: 0.217 mg/kg
- Urine volume [9]: 29.9 mL
- Urine volume [10]: 6 mL
- Urine volume [11]: 2.5 mL
- Urine osmolality [12]: 138 mOsmol kg-1
- Urine osmolality [13]: 299 mOsmol kg-1
- Urine osmolality [14]: 180 mOsmol kg-1
- Urine osmolality [15]: 444 mOsmol kg-1
- Ki [2]: 130 nM
- Ki [4]: 9 nM
- half-life [16]: 5 h
- Urine volume [17]: 15.1 mL

Structure (SMILES): Cc1ccc(F)cc1C(=O)Nc1ccc(C(=O)N2Cc3cccn3Cc3ccccc32)c(Cl)c1 [LIXIVAPTAN]
- IC50 [1]: 5 nM
- IC50 [3]: 150 nM
- Ki [4]: 90 nM

Structure (SMILES): O=C(Nc1ccc(C(=O)N2C[C@@H]3C4CCC(CC4)N3Cc3cc(Cl)ccc32)cc1)c1ccccc1Cl
- IC50 [1]: 13 nM
- Ki [2]: 620 nM
- IC50 [3]: 35 nM
- Ki [4]: 520 nM

Structure (SMILES): O=C(Nc1ccc(C(=O)N2CC3C4CCC(CC4)N3Cc3ccccc32)c(Cl)c1)c1ccccc1-c1ccccc1 (centres undefined)
- IC50 [1]: 4 nM
- inhibition [18]: 30%

Structure (SMILES): O=C(Nc1ccc(C(=O)N2CC3C4CCC(CC4)N3Cc3ccccc32)cc1)c1ccccc1-c1ccccc1 (centres undefined)
- IC50 [3]: ~100 nM

Structure (SMILES): O=C(Nc1ccc(C(=O)N2C[C@@H]3C4CCC(C4)N3Cc3cc(Cl)ccc32)cc1)c1ccccc1C(F)(F)F (some centres undefined)
- ED50 [8]: 0.38 mg/kg
- IC50 [1]: 7 nM
- Ki [2]: 40 nM
- IC50 [3]: 4 nM
- Ki [4]: 9 nM

Structure (SMILES): Cc1ccc(-c2ccccc2C(=O)Nc2ccc(C(=O)N3C[C@@H]4C5CCC(C5)N4Cc4cc(Cl)ccc43)cc2)cc1 (some centres undefined)
- Clearance [5]: 2.1 mg/kg/µM/h
- bioavailability [6]: 7%
- Cmax [7]: 320 nM
- IC50 [19]: 7400 nM
- ED50 [8]: 0.0074 mg/kg
- Excretion [20]: 7.7 mg/dL
- Excretion [21]: 31.4 mg/dL
- Excretion [22]: 16.2 mg/dL
- Excretion [23]: 0.3 m equiv 4hr-1
- Excretion [24]: 0.34 m equiv 4hr-1
- Excretion [25]: 0.52 m equiv 4hr-1
- Excretion [26]: 0.07 m equiv 4hr-1
- Excretion [27]: 0.16 m equiv 4hr-1
- Urine volume [9]: 17.8 mL
- Urine volume [10]: 2.9 mL
- Urine osmolality [12]: 159 mOsmol kg-1
- Urine osmolality [13]: 387 mOsmol kg-1
- Urine osmolality [14]: 226 mOsmol kg-1
- Ki [2]: 23 nM
- Ki [4]: 13 nM
- half-life [16]: 2.5 h
- Excretion [28]: 0.64 m equiv 4hr-1
- Urine volume [17]: 5.8 mL

Structure (SMILES): Cc1ccc(-c2ccccc2C(=O)Nc2ccc(C(=O)N3C[C@@H]4C5CCC(C5)N4Cc4cc(Cl)ccc43)c(Cl)c2)cc1 (some centres undefined)
- IC50 [1]: 30 nM
- IC50 [3]: 35 nM

Structure (SMILES): Cc1cc(F)cc(C(=O)Nc2ccc(C(=O)N3C[C@@H]4C5CCC(CC5)N4Cc4ccccc43)c(Cl)c2)c1
- IC50 [1]: 19 nM
- inhibition [18]: 15%

Structure (SMILES): O=C(Nc1ccc(C(=O)N2C[C@H]3C4CCC(C4)N3Cc3ccccc32)c(Cl)c1)c1ccccc1-c1ccccc1 (some centres undefined)
- Clearance [5]: 3.3 mg/kg/µM/h
- bioavailability [6]: 10%
- Cmax [7]: 230 nM
- Urine volume [9]: 19.5 mL
- Urine volume [10]: 3.4 mL
- Urine volume [11]: 1.4 mL
- Urine osmolality [12]: 172 mOsmol kg-1
- Urine osmolality [13]: 303 mOsmol kg-1
- Urine osmolality [14]: 238 mOsmol kg-1
- Urine osmolality [15]: 408 mOsmol kg-1
- inhibition [18]: 7%
- Ki [4]: 30 nM
- half-life [16]: 2.5 h
- Urine volume [17]: 9.4 mL

Structure (SMILES): O=C(Nc1ccc(C(=O)N2C[C@@H]3C4CCC(C4)N3Cc3cc(Cl)ccc32)cc1)c1ccccc1F (some centres undefined)
- IC50 [1]: 26 nM
- Ki [2]: 2600 nM
- IC50 [3]: 68 nM
- Ki [4]: 180 nM
